In patent US20230072683A1, “PYRIDO-PYRIMIDIN DERIVATIVES AND PHARMACEUTICAL COMPOSITION, FOR USE IN PREVENTING OR TREATING PI3 KINASE RELATED DISEASES, COMPRISING SAME AS ACTIVE INGREDIENT” (BORYUNG PHARMACEUTICAL CO., LTD, priority 2019, published 2023):
Like-named read-outs stand apart in the source and are kept apart here.

Tests used:
DNA-PK(h) = DNA-PK(h) (Homo sapiens, UniProt P78527); assay: Evaluation of inhibitory activity against DNA-PK (HTRF kinase assay, GST-cMyc-p53 substrate); type: biochemical; details: for inhibition at 0.01 µM: compound concentration 0.01 μM, read-out: EXP_VALUE(% Inhibition) DNA-PK(h) 0.01 μM; for inhibition at 0.1 µM: read-out: EXP_VALUE(% Inhibition) DNA-PK(h) 0.1 μM
How it was run: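 Human DNA-PK with 50 μM GST-cMyc-p53 substrate; reaction started with Mg/ATP, run 30 min at room temperature, stopped with EDTA. Phospho-Ser15 p53 detected by HTRF (Eu anti-phospho-Ser15, d2 anti-GST), signal = 10000×(Em 665/Em 620).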

[1] = biological target: PI3K-δ (PI3K(p1108/p857) (h)) (Homo sapiens, UniProt O00329); assay: Evaluation of inhibitory activity against PI3K-δ (HTRF kinase assay); type: biochemical; details: for inhibition at 0.01 µM: compound concentration 0.01 μM, read-out: EXP_VALUE(% Inhibition) PI3K-δ 0.01 μM; for inhibition at 0.1 µM: read-out: EXP_VALUE(% Inhibition) PI3K-δ 0.1 μM
PI3K-δ (PI3K(p1108/p857) (h)), sequence (O00329 whole entry, the tested form may be a part): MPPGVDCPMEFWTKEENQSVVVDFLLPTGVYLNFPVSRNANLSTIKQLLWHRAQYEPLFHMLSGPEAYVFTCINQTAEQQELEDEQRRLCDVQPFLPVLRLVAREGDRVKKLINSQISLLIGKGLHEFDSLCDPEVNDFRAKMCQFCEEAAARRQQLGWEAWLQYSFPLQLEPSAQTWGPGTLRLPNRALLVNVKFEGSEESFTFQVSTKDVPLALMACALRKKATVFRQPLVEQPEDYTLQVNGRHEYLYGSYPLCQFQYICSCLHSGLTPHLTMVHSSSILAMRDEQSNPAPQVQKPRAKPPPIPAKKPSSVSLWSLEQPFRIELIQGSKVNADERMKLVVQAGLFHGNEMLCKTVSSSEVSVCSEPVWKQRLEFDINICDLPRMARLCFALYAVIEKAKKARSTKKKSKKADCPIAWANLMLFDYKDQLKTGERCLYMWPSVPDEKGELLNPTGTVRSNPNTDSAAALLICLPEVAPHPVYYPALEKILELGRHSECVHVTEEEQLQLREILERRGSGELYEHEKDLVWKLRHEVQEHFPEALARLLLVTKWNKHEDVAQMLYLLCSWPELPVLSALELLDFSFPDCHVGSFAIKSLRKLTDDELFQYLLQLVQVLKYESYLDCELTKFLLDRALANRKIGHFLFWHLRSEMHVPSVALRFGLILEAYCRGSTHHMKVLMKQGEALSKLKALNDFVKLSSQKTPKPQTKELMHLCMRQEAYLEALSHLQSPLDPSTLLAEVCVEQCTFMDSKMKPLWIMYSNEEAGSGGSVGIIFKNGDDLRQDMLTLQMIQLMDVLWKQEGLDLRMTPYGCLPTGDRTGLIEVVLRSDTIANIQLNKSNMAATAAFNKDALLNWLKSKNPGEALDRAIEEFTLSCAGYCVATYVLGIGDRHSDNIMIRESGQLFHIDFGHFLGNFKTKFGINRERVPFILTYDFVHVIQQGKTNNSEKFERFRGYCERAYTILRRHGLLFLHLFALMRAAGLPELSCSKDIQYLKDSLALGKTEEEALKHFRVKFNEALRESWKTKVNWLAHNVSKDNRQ
PI3K-δ (PI3K(p1108/p857) (h)), sequence (P27986 whole entry partner, the tested form may be a part): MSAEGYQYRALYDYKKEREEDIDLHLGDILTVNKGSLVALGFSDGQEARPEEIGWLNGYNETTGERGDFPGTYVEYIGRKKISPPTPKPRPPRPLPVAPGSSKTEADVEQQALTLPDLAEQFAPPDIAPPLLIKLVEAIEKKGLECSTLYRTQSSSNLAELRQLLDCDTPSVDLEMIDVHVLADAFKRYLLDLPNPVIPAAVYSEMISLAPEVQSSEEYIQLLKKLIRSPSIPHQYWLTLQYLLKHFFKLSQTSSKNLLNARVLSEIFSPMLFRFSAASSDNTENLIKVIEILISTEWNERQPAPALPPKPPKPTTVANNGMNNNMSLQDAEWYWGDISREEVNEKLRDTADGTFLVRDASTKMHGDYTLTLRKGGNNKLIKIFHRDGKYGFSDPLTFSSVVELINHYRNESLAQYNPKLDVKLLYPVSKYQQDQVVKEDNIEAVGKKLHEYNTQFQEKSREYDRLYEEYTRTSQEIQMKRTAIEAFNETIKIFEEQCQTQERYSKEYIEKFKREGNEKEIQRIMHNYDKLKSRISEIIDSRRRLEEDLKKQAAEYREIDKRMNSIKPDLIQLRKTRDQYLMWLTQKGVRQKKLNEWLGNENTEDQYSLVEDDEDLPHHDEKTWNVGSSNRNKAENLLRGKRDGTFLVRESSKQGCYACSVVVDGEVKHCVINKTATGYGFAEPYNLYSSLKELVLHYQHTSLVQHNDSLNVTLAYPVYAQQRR
How it was run: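 HTRF read-out (665/620 nm ratio ×10000) used Eu-labelled anti-GST, GST-tagged GRP1 PH domain and streptavidin-allophycocyanin after EDTA/PIP3 stop.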

inhibition at 0.01 µM (DNA-PK(h))	inhibition at 0.01 µM [1]	inhibition at 0.1 µM (DNA-PK(h); compound concentration 0.1 μM)	inhibition at 0.1 µM ([1]; compound concentration 0.1 μM)	inhibition at 0.1 µM (DNA-PK(h); compound at 0.1 μM)	inhibition at 0.1 µM ([1]; compound at 0.1 μM)	Structure (SMILES)
61%	91%					COc1ncc(-c2cccc3c(Cl)c([C@H](C)Nc4ncnc5[nH]ccc(=O)c45)n(-c4ccccc4)c(=O)c23)cc1C [Example 197, (S)-4-((1-(4-chloro-8-(6-methoxy-5-methylpyridin-3-yl)-1-oxo-2-phenyl-1,2-dihydroisoquinolin-3-yl)ethyl)amino)pyrido[2,3-d]pyrimidin-5(8H)-one]
80%	97%					CC(O)c1ccc(-c2cccc3c(Cl)c([C@H](C)Nc4ncnc5[nH]ccc(=O)c45)n(-c4ccccc4)c(=O)c23)cc1 (stereo partly drawn) [Example 57, 4-(((1S)-1-(4-chloro-8-(4-(1-hydroxyethyl)phenyl)-1-oxo-2-phenyl-1,2-dihydroisoquinolin-3-yl)ethyl)amino)pyrido[2,3-d]pyrimidin-5(8H)-one]
3%	35%	18%	101%			Cc1ccc(-c2cccc3cc([C@H](C)Nc4ncnc5[nH]ccc(=O)c45)n(-c4ccccc4)c(=O)c23)cn1 [Example 13, (S)-4-((1-(8-(6-methylpyridin-3-yl)-1-oxo-2-phenyl-1,2-dihydroisoquinolin-3-yl)ethyl)amino)pyrido[2,3-d]pyrimidin-5(8H)-one]
38%	42%	84%	87%			C[C@H](Nc1ncnc2[nH]ccc(=O)c12)c1c(Cl)c2cccc(-c3cc(Cl)ccc3F)c2c(=O)n1-c1ccccc1 [Example 140, (S)-4-((1-(4-chloro-8-(5-chloro-2-fluorophenyl)-1-oxo-2-phenyl-1,2-dihydroisoquinolin-3-yl)ethyl)amino)pyrido[2,3-d]pyrimidin-5(8H)-one]
66%	73%					COc1cncc(-c2cccc3c(Cl)c([C@H](C)Nc4ncnc5[nH]ccc(=O)c45)n(-c4ccccc4)c(=O)c23)n1 [Example 204, (S)-4-((1-(4-chloro-8-(6-methoxypyrazin-2-yl)-1-oxo-2-phenyl-1,2-dihydroisoquinolin-3-yl)ethyl)amino)pyrido[2,3-d]pyrimidin-5(8H)-one]
59%	72%	92%	103%			C[C@H](Nc1ncnc2[nH]ccc(=O)c12)c1c(Cl)c2cccc(C3CC3)c2c(=O)n1-c1ccccc1 [Example 66, (S)-4-((1-(4-chloro-8-cyclopropyl-1-oxo-2-phenyl-1,2-dihydroisoquinolin-3-yl)ethyl)amino)pyrido[2,3-d]pyrimidin-5(8H)-one]
75%	96%					C[C@H](Nc1ncnc2[nH]ccc(=O)c12)c1c(Cl)c2cccc(-c3ccc4ncncc4c3)c2c(=O)n1-c1ccccc1 [Example 32, (S)-4-((1-(4-chloro-1-oxo-2-phenyl-8-(quinazolin-6-yl)-1,2-dihydroisoquinolin-3-yl)ethyl)amino)pyrido[2,3-d]pyrimidin-5(8H)-one]
21%	29%	82%	76%			C[C@H](Nc1ncnc2[nH]ccc(=O)c12)c1c(Cl)c2cccc(OCC(F)(F)F)c2c(=O)n1-c1ccccc1 [Example 364, (S)-4-((1-(4-chloro-1-oxo-2-phenyl-8-(2,2,2-trifluoroethoxy)-1,2-dihydroisoquinolin-3-yl)ethyl)amino)pyrido[2,3-d]pyrimidin-5(8H)-one]
78%	84%	100%	95%			C[C@H](Nc1ncnc2[nH]ccc(=O)c12)c1c(Cl)c2cccc(-c3ccc(N)cc3)c2c(=O)n1-c1ccccc1 [Example 94, (S)-4-((1-(8-(4-aminophenyl)-4-chloro-1-oxo-2-phenyl-1,2-dihydroisoquinolin-3-yl)ethyl)amino)pyrido[2,3-d]pyrimidin-5(8H)-one]
				37%	4%	CC(C)[S@](=N)(=O)c1cccc2c(Cl)c([C@H](C)Nc3ncnc4[nH]ccc(=O)c34)n(-c3ccccc3)c(=O)c12 [Example 411, 4-(((S)-1-(4-chloro-1-oxo-2-phenyl-8-((S)-propan-2-ylsulfonimidoyl)-1,2-dihydroisoquinolin-3-yl)ethyl)amino)pyrido[2,3-d]pyrimidin-5(8H)-one]
78%	86%	100%	97%			C[C@H](Nc1ncnc2[nH]ccc(=O)c12)c1c(Cl)c2cccc(-c3cnn(C4CC4)c3)c2c(=O)n1-c1ccccc1 [Example 96, (S)-4-((1-(4-chloro-8-(1-cyclopropyl-1H-pyrazol-4-yl)-1-oxo-2-phenyl-1,2-dihydroisoquinolin-3-yl)ethyl)amino)pyrido[2,3-d]pyrimidin-5(8H)-one]
4%	19%	23%	55%			Cc1ccc2c(c1)CN(c1cccc3c(Cl)c([C@H](C)Nc4ncnc5[nH]ccc(=O)c45)n(-c4ccccc4)c(=O)c13)CC2 [Example 329, (S)-4′-chloro-7-methyl-3′-(1-((5-oxo-5,8-dihydropyrido[2,3-d]pyrimidin-4-yl)amino)ethyl)-2′-phenyl-3,4-dihydro-1H-[2,8′-biisoquinolin]-1′(2′H)-one]
45%	50%	89%	91%			C[C@H](Nc1ncnc2[nH]ccc(=O)c12)c1c(Cl)c2cccc(-c3ncon3)c2c(=O)n1-c1ccccc1 [Example 351, (S)-4-((1-(4-chloro-8-(1,2,4-oxadiazol-3-yl)-1-oxo-2-phenyl-1,2-dihydroisoquinolin-3-yl)ethyl)amino)pyrido[2,3-d]pyrimidin-5(8H)-one]
60%	63%					CON=C(C)c1cccc2c(Cl)c([C@H](C)Nc3ncnc4[nH]ccc(=O)c34)n(-c3ccccc3)c(=O)c12 (stereo in doubt) [Example 270, (S,Z)-4-((1-(4-chloro-8-(1-(methoxyimino)ethyl)-1-oxo-2-phenyl-1,2-dihydroisoquinolin-3-yl)ethyl)amino)pyrido[2,3-d]pyrimidin-5(8H)-one]
44%	69%					C[C@H](Nc1ncnc2[nH]ccc(=O)c12)c1c(Cl)c2cccc(-c3ccc(-n4cccc4)nc3)c2c(=O)n1-c1ccccc1 [Example 3, (S)-4-((1-(8-(6-(1H-pyrrol-1-yl)pyridin-3-yl)-4-chloro-1-oxo-2-phenyl-1,2-dihydroisoquinolin-3-yl)ethyl)amino)pyrido[2,3-d]pyrimidin-5(8H)-one]
80%	70%					C[C@H](Nc1ncnc2[nH]ccc(=O)c12)c1c(Cl)c2cccc(-c3ccc(N4CCOCC4)nc3)c2c(=O)n1-c1ccccc1 [Example 175, (S)-4-((1-(4-chloro-8-(6-morpholinopyridin-3-yl)-1-oxo-2-phenyl-1,2-dihydroisoquinolin-3-yl)ethyl)amino)pyrido[2,3-d]pyrimidin-5(8H)-one]
8%	22%	28%	65%			C[C@H](Nc1ncnc2[nH]ccc(=O)c12)c1c(Cl)c2cccc(NC3CC3)c2c(=O)n1-c1ccccc1 [Example 323, (S)-4-((1-(4-chloro-8-(cyclopropylamino)-1-oxo-2-phenyl-1,2-dihydroisoquinolin-3-yl)ethyl)amino)pyrido[2,3-d]pyrimidin-5(8H)-one]
70%	99%					CSc1ncc(-c2cccc3c(Cl)c([C@H](C)Nc4ncnc5[nH]ccc(=O)c45)n(-c4ccccc4)c(=O)c23)cn1 [Example 214, (S)-4-((1-(4-chloro-8-(2-(methylthio)pyrimidin-5-yl)-1-oxo-2-phenyl-1,2-dihydroisoquinolin-3-yl)ethyl)amino)pyrido[2,3-d]pyrimidin-5(8H)-one]
19%	84%	62%	94%			C[C@H](Nc1ncnc2[nH]ccc(=O)c12)c1c(Cl)c2cccc(B(O)O)c2c(=O)n1-c1ccccc1 [Example 353, (S)-(4-chloro-1-oxo-3-(1-((5-oxo-5,8-dihydropyrido[2,3-d]pyrimidin-4-yl)amino)ethyl)-2-phenyl-1,2-dihydroisoquinolin-8-yl)boronic acid]
				45%	94%	C[C@H](Nc1ncnc2[nH]ccc(=O)c12)c1c(Cl)c2cccc(-c3cnc(S(C)(=O)=O)nc3)c2c(=O)n1-c1ccccc1 [Example 392, (S)-4-((1-(4-chloro-8-(2-(methylsulfonyl)pyrimidin-5-yl)-1-oxo-2-phenyl-1,2-dihydroisoquinolin-3-yl)ethyl)amino)pyrido[2,3-d]pyrimidin-5(8H)-one]
21%	75%					C[C@H](Nc1ncnc2[nH]ccc(=O)c12)c1c(Cl)c2cccc(-c3ccc(OC(F)(F)F)cc3)c2c(=O)n1-c1ccccc1 [Example 247, (S)-4-((1-(4-chloro-1-oxo-2-phenyl-8-(4-(trifluoromethoxy)phenyl)-1,2-dihydroisoquinolin-3-yl)ethyl)amino)pyrido[2,3-d]pyrimidin-5(8H)-one]
